Laboratory results reported in PubChem BioAssay (NCI).
Values joined by “and” are separate entries in the source; they are usually repeats but may differ in a detail not shown here. Equal entries are not always repeated.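 Dose response: 5 concentrations. Exposure: 48 h. Format: 96-well plates. Endpoint: linear interpolation; highest concentration if not reached. Here, GI50 denotes the concentration required for 50% inhibition of growth. TGI marks complete inhibition of growth.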

Key:
Assay in all cases: DTP human tumour cell line panel, 48 h
[1] = test system: CCRF-CEM leukemia
[2] = test system: HCT-15 colon
[3] = test system: HT29 colon
[4] = test system: K-562 leukemia
[5] = test system: MOLT-4 leukemia
[6] = test system: OVCAR-8 ovarian
[7] = test system: U251 CNS
[8] = test system: DU-145 prostate
[9] = test system: MCF7 breast
[10] = test system: MDA-MB-435

Compound | TGI [1] | TGI [2] | TGI [3] [µM] | TGI [4] [µM] | TGI [5] [µM] | TGI [6] [µM] | TGI [7] | GI50 [1] [µM] | GI50 [8] [µM] | GI50 [2] | GI50 [3] [µM] | GI50 [4] [µM] | GI50 [9] [µM] | TGI [9] | GI50 [5] [µM] | GI50 [6] [µM] | GI50 [7] [µM] | TGI [8] [µM] | GI50 [10] [µM] | TGI [10] [µM]
COc1ccc2c3c(c(C(=O)O)oc13)CCC2 | > 100 µM | > 100 µM | > 100 | > 100 | > 100 | > 100 | > 100 µM | – | – | – | – | – | – | – | – | – | – | – | – | –
S=c1nc(C(c2ccccc2)c2ccccc2)[nH][nH]1 | > 100 µM | > 100 µM | > 100 | > 100 | > 100 | > 100 | > 100 µM | – | – | – | – | – | – | – | – | – | – | – | – | –
Cc1cc(C)nc(NS(=O)(=O)c2ccc(Nc3c4ccccc4nc4c(C(=O)Nc5ccc(S(=O)(=O)Nc6cc(C)on6)cc5)ccc(Cl)c34)cc2)n1 | 71 µM | > 100 µM | 47.8 | > 100 | 49.1 | > 100 | 30.9 µM | – | – | – | – | – | – | – | – | – | – | – | – | –
CC(N)Cc1ccc(Cl)cc1 (centres undefined) | > 100 µM | > 100 µM | > 100 | > 100 | > 100 | > 100 | > 100 µM | – | – | – | – | – | – | – | – | – | – | – | – | –
Cc1cc(Br)cc(C)c1NC(=O)C(=O)C(C(=O)c1ccncc1)C1OC(=O)c2ccccc21 (centres undefined) | > 100 µM | > 100 µM | – | > 100 | > 100 | > 100 | > 100 µM | – | – | – | – | – | – | – | – | – | – | – | – | –
CC(=O)O[C@@]12CO[C@@H]1C[C@H](O)[C@@]1(C)C(=O)[C@H](O)C3=C(C)[C@@H](OC(=O)[C@H](O)[C@@H](NC(=O)OC(C)(C)C)c4ccccc4)C[C@@](O)([C@@H](OC(=O)c4ccccc4)C12)C3(C)C (some centres undefined) | 29.3 µM and 60.8 µM | 50 µM and > 100 µM | 41.7 | 50 | 52.6 | 50 | 50 µM and > 100 µM | < 0.005 | < 0.005 | 0.0441 µM and 0.327 µM | < 0.005 | < 0.005 | < 0.005 | 50 µM and 33.5 µM | 0.0194 | < 0.005 | < 0.005 | – | – | –
COc1cc2c(c(O)c1C)C(=O)CC(c1ccccc1)O2 (centres undefined) | > 10 µM | > 100 µM | > 10 | > 100 | > 100 | > 100 | > 100 µM | – | – | – | – | – | – | – | – | – | – | – | – | –
Cc1ccc2[nH]c3c(c2c1)N=c1ccccc1=NO3 | > 100 µM | > 100 µM | > 100 | > 100 | > 100 | 43 | > 100 µM | > 100 | 34.6 | > 100 µM | 76.1 | > 100 | – | – | > 100 | 17.5 | 53.7 | > 100 | > 100 | > 100
Cc1c(NC(=O)CCl)c(=O)oc2c(C)c3occc(=O)c3cc12 | 41.8 µM | – | 35.3 | 52 | 17.9 | 43.2 | 27.5 µM | – | – | – | – | – | – | 66.2 µM | – | – | – | 74.5 | – | –
CCC[CH2][Sn]([CH2]CCC)([CH2]CCC)[O]C(=O)C(OC(C)=O)c1ccccc1 (centres undefined) | – | 0.28 µM | 0.26 | 0.349 | 0.42 | 0.304 | 0.27 µM | – | – | 0.144 µM | 0.127 | 0.109 | – | – | 0.0539 | 0.167 | 0.14 | – | – | –
COc1cccc2c1C(=O)c1c(O)c3c(c(O)c1C2=O)C[C@@](O)(C(C)=O)C[C@@H]3OC1CC([N+]([O-])(Cc2ccccc2)Cc2ccccc2)C(O)C(C)O1 (some centres undefined) | – | 2.76 µM | 3.14 | – | – | 14.9 | 2.48 µM | – | – | – | – | – | – | – | – | – | – | – | – | –
O=C(O)C(Br)C(Br)C(=O)O (centres undefined) | – | > 100 µM | > 100 | > 100 | – | > 100 | > 100 µM | – | – | – | – | – | – | > 100 µM | – | – | – | > 100 | – | > 100
NCCOCn1cc(Cc2cccc(OCc3ccccc3)c2)c(=O)[nH]c1=O | > 100 µM | > 100 µM | > 100 | > 100 | > 100 | > 100 | > 100 µM | – | – | – | – | – | – | – | – | – | – | – | – | –
O=C1OC(c2ccccc2)(c2ccccc2)c2ccc3ccc(F)cc3c21 | > 100 µM | > 100 µM | > 100 | > 100 | > 100 | > 100 | > 100 µM | – | – | – | – | – | – | – | – | – | – | – | – | –
O=C1C=CC(=O)C2C1Cc1ccccc1C2c1ccccc1 (centres undefined) | 68.7 µM | > 100 µM | > 100 | > 100 | 93.2 | 78 | 33 µM | – | – | – | – | – | – | – | – | – | – | – | – | –
O=S(=O)(c1ccccc1)c1nccs1 | – | > 100 µM | > 100 | > 100 | > 100 | > 100 | > 100 µM | – | – | – | – | – | – | – | – | – | – | – | – | –
O=C1CSC(c2ccc(-c3nc4ccccc4[nH]3)cc2)=N1 | – | > 50 µM | – | 17.5 | – | > 50 | > 50 µM | – | 31.4 | 16.7 µM | – | 5.64 | 8.89 | > 50 µM | – | 23 | 17.4 | > 50 | 32.5 | > 50
